The molecules below were run on HCV pseudoparticles (genotype 1a HCV E1 and E2 envelope, H77C isolate) (assay: microbe, parasite or virus in culture). Settings: Hepatitis C virus, Huh-7, 48 h, HCV pseudoparticles (genotype 1a, H77C) in Huh7 cells; average of duplicate; luciferase 2 days after infection.
Format: cell-based

SMILES | EC50
Cc1ccc(NC(=O)C(=O)NCC(C)(C)CNC(=O)c2ccc(Nc3nc(NC4(c5ccc(Cl)cc5)CC4)nc(OCC(F)(F)F)n3)cc2F)cc1 [Compound 3554] | 0.029 nM
Cc1ccc(NC(=O)C(=O)NCC(C)(C)CNC(=O)c2ccc(Nc3nc(NC4(c5ccc(Cl)cc5)CC4)nc(OCC(F)(F)F)n3)cc2-n2nnnc2C)cc1 [Compound 3518] | 0.097 nM
CN(CCCN(C)C(=O)c1ccc(Nc2nc(NC3(c4ccc(Cl)cc4)CC3)nc(OCC(F)(F)F)n2)cc1)C(=O)C(=O)Nc1nccs1 [Compound 3430] | 1.45 nM

Same assay, conditions: Hepatitis C virus, Huh-7, 48 h, HCV pseudoparticles, Huh7 cells, luciferase 2 days after infection; average of duplicates

SMILES | EC50
O=C(NC[C@H](NC(=O)c1ccc(Nc2nc(NC3(c4ccc(Cl)cc4)CC3)nc(OCC(F)(F)F)n2)cc1)C(=O)O)C(=O)Nc1cccc(-c2ccccc2)c1 [Compound 3751] | 0.14 nM
Cc1ccc(NC(=O)C(=O)NCC(C)(C)CNC(=O)c2ccc(Nc3nc(NC4(c5ccc(Cl)cc5)CC4)nc(OCc4ccccc4F)n3)cc2)cc1 [Compound 3847] | 0.027 nM

Same assay, conditions: Hepatitis C virus, Huh-7, 48 h, read-out: Activity (EC50 class), HCV pseudoparticle infection of Huh7 cells, luciferase 2 days after infection; EC50 expressed as class A/B

SMILES | EC50
O=C(NCCc1cccc(F)c1)C(=O)NCC[C@H](NC(=O)c1ccc(Nc2nc(NC3(c4ccc(Cl)cc4)CC3)nc(OCC(F)(F)F)n2)cc1)C(=O)O [Compound 1333] | 0.01 to 10 nM
COC(=O)[C@H](CNC(=O)C(=O)Nc1ccn(C)n1)NC(=O)c1ccc(Nc2nc(NC3(c4ccc(Cl)cc4)CC3)nc(OCC(F)(F)F)n2)cc1 [Compound 1244] | 0.01 to 10 nM
O=C(Nc1ccc(F)cc1)C(=O)NC1CCCC1CNC(=O)c1ccc(Nc2nc(NC3(c4ccc(Cl)cc4)CC3)nc(OCC(F)(F)F)n2)cc1 (stereo not drawn) [Compound 1465, N^1-(2-((4-((4-((1-(4-chlorophenyl)cyclopropyl)amino)-6-(2,2,2-trifluoroethoxy)-1,3,5-triazin-2-yl)amino)benzamido)methyl)cyclopentyl)-N^2-(4-fluorophenyl)oxalamide] | 0.01 to 10 nM
COC(=O)C(NC(=O)c1ccc(Nc2nc(NC3(c4ccc(Cl)cc4)CC3)nc(OCC(F)(F)F)n2)cc1)C1CCCN(C(=O)C(N)=O)C1 (stereo not drawn) [Compound 1017, methyl 2-(1-(2-amino-2-oxoacetyl)piperidin-3-yl)-2-(4-(4-(1-(4-chlorophenyl)cyclopropylamino)-6-(2,2,2-trifluoroethoxy)-1,3,5-triazin-2-ylamino)benzamido)acetate] | 0.01 to 10 nM
C[C@@H]1[C@H]2C[C@H](C[C@H]1NC(=O)C(=O)NC[C@H](NC(=O)c1ccc(Nc3nc(NC4(c5ccc(Cl)cc5)CC4)nc(OCC(F)(F)F)n3)cc1)C(=O)O)C2(C)C [Compound 1105] | 0.01 to 10 nM
COc1cc(NC(=O)C(=O)NCC[C@H](NC(=O)c2ccc(Nc3nc(NC4(c5ccc(Cl)cc5)CC4)nc(OCC(F)(F)F)n3)cc2)C(=O)O)ccc1-c1ccccc1 [Compound 1519] | 0.01 to 10 nM
O=C(NCCc1ccccc1)C(=O)NC[C@H](NC(=O)c1ccc(Nc2nc(NC3(c4ccc(Cl)cc4)CC3)nc(OCC(F)(F)F)n2)cc1)C(=O)O [Compound 1396] | 0.01 to 10 nM
Cc1ccc(NC(=O)C(=O)NCC(C)(C)CNC(=O)c2ccc(Nc3nc(NC4(c5ccc(Cl)cc5)CC4)nc(OCC(F)(F)F)n3)cc2)cc1Cl [Compound 1541] | 0.01 to 10 nM
O=C(NC[C@H](NC(=O)c1ccc(Nc2nc(NC3(c4ccc(Cl)cc4)CC3)nc(OCC(F)(F)F)n2)cc1)C(=O)O)C(=O)NC1CCCCCCC1 [Compound 1096] | 0.01 to 10 nM
CCCNC(=O)C(NC(=O)c1ccc(Nc2nc(NC3(c4ccc(Cl)cc4)CC3)nc(OCC(F)(F)F)n2)cc1)C1CCCN(C(=O)C(N)=O)C1 (stereo not drawn) [Compound 1019, N-(1-(1-(2-amino-2-oxoacetyl)piperidin-3-yl)-2-oxo-2-(propylamino)ethyl)-4-(4-(1-(4-chlorophenyl)cyclopropylamino)-6-(2,2,2-trifluoroethoxy)-1,3,5-triazin-2-ylamino)benzamide] | 0.01 to 10 nM
O=C(NCCc1ccncc1)C(=O)NCC[C@H](NC(=O)c1ccc(Nc2nc(NC3(c4ccc(Cl)cc4)CC3)nc(OCC(F)(F)F)n2)cc1)C(=O)O [Compound 1332] | 0.01 to 10 nM
COC(=O)[C@H](CCNC(=O)C(=O)Nc1ccc(O)cc1)NC(=O)c1ccc(Nc2nc(NC3(c4ccc(Cl)cc4)CC3)nc(OCC(F)(F)F)n2)cc1 [Compound 1526] | 0.01 to 10 nM
COC(=O)[C@@H](CCNC(=O)C(=O)NC(CCO)C1CC1)NC(=O)c1ccc(Nc2nc(NC3(c4ccc(Cl)cc4)CC3)nc(OCC(F)(F)F)n2)cc1 (stereo partly drawn) [Compound 1390] | 0.01 to 10 nM
CC(C)(CNC(=O)C(=O)NCc1ccc(F)cc1F)CNC(=O)c1ccc(Nc2nc(NC3(c4ccc(Cl)cc4)CC3)nc(OCC(F)(F)F)n2)cc1 [Compound 1034, N1-(3-(4-(4-(1-(4-chlorophenyl)cyclopropylamino)-6-(2,2,2-trifluoroethoxy)-1,3,5-triazin-2-ylamino)benzamido)-2,2-dimethylpropyl)-N2-(2,4-difluorobenzyl)oxalamide] | 0.01 to 10 nM
CN(C(=O)C(=O)NCC(C)(C)CNC(=O)c1ccc(Nc2nc(NC3(c4ccc(Cl)cc4)CC3)nc(OCC(F)(F)F)n2)cc1)c1ccc(F)cc1 [Compound 1599] | 0.01 to 10 nM
O=C(NCCc1cccnc1)C(=O)NC[C@H](NC(=O)c1ccc(Nc2nc(NC3(c4ccc(Cl)cc4)CC3)nc(OCC(F)(F)F)n2)cc1)C(=O)O [Compound 1405] | 0.01 to 10 nM
COCC1(CNC(=O)C(=O)NCC[C@@H](NC(=O)c2ccc(Nc3nc(NC4(c5ccc(Cl)cc5)CC4)nc(OCC(F)(F)F)n3)cc2)C(=O)O)CC1 [Compound 1419] | 0.01 to 10 nM
Cn1nccc1NC(=O)C(=O)NCC[C@H](NC(=O)c1ccc(Nc2nc(NC3(c4ccc(Cl)cc4)CC3)nc(OCC(F)(F)F)n2)cc1)C(=O)O [Compound 1281] | 0.01 to 10 nM

Same assay, conditions: Hepatitis C virus, Huh-7, 48 h, read-out: Activity (EC50 class), HCV pseudoparticles, Huh7 cells, luciferase 2 days after infection; average of duplicates

SMILES | EC50
COC(=O)[C@H](CNC(=O)C(=O)Nc1cccc(CCC(N)=O)c1)NC(=O)c1ccc(Nc2nc(NC3(c4ccc(Cl)cc4)CC3)nc(OCC(F)(F)F)n2)cc1 [Compound 3738] | 0.01 to 10 nM
O=C(NC[C@H](NC(=O)c1ccc(Nc2nc(NC3(c4ccc(Cl)cc4)CC3)nc(OCC(F)(F)F)n2)cc1)C(=O)O)C(=O)Nc1cccc(-c2ccccc2)c1 [Compound 3751] | 0.01 to 10 nM
COC(=O)[C@H](CNC(=O)C(=O)Nc1cccc(C)c1)NC(=O)c1ccc(Nc2nc(NC3(c4ccc(Cl)cc4)CC3)nc(OCC(F)(F)F)n2)cc1 [Compound 3687] | 0.01 to 10 nM
COC(=O)[C@H](CCNC(=O)C(=O)Nc1cccc(-c2ccc(Cl)cc2)c1)NC(=O)c1ccc(Nc2nc(NC3(c4ccc(Cl)cc4)CC3)nc(OCC(F)(F)F)n2)cc1 [Compound 3599] | 0.01 to 10 nM
Cc1ccc(NC(=O)C(=O)NCC(C)(C)CNC(=O)c2ccc(Nc3nc(NC4(c5ccc(Cl)cc5)CC4)nc(OCc4ccccc4F)n3)cc2)cc1 [Compound 3847] | 0.01 to 10 nM
CC(C)(CNC(=O)C(=O)Nc1nc2cccnc2s1)CNC(=O)c1ccc(Nc2nc(NC3(c4ccc(Cl)cc4)CC3)nc(OCC(F)(F)F)n2)cc1 [Compound 3811] | 0.01 to 10 nM
O=C(NC[C@H](NC(=O)c1ccc(Nc2nc(NC3(c4ccc(Cl)cc4)CC3)nc(OCC(F)(F)F)n2)cc1)C(=O)Cl)C(=O)Nc1cccc(Oc2ccccn2)c1 [Compound 3781] | 0.01 to 10 nM
COC(=O)[C@H](CCNC(=O)C(=O)Nc1cccc(-c2c[nH]cn2)c1)NC(=O)c1ccc(Nc2nc(NC3(c4ccc(Cl)cc4)CC3)nc(OCC(F)(F)F)n2)cc1 [Compound 3608] | 0.01 to 10 nM

Same assay, conditions: Hepatitis C virus, Huh-7, read-out: Activity (EC50 class), HCV pseudoparticles (genotype 1a, H77C) in Huh7 cells; EC50 expressed as class A/B

SMILES | EC50
COc1cccc(NC(=O)C(=O)NCC(C)(C)CNC(=O)c2ccc(Nc3nc(NC4(c5ccc(Cl)cc5)CC4)nc(OCC(F)(F)F)n3)cc2)n1 [Compound 3252] | 0.01 to 10 nM
Cc1ccc(NC(=O)C(=O)NCC(C)(C)CNC(=O)c2ccc(Nc3nc(NC4(c5ccc(Cl)cc5)CC4)nc(OCC(F)(F)F)n3)cc2F)cc1 [Compound 3554] | 0.01 to 10 nM
Cc1ccc(NC(=O)C(=O)NCC(C)(C)CNC(=O)c2ccc(Nc3nc(NC4(c5ccc(Cl)cc5)CC4)nc(OCC(F)(F)F)n3)cc2-n2nnnc2C)cc1 [Compound 3518] | 0.01 to 10 nM
COC(=O)[C@H](CCNC(=O)C(=O)Nc1ccc(Cc2ccccc2)cc1)NC(=O)c1ccc(Nc2nc(NC3(c4ccc(Cl)cc4)CC3)nc(OCC(F)(F)F)n2)cc1 [Compound 3120] | 0.01 to 10 nM
O=C(NCCNC(=O)c1ccc(Nc2nc(NC3(c4ccc(Cl)cc4)CC3)nc(OCC(F)(F)F)n2)cc1)C(=O)Nc1cccc(F)c1 [Compound 3369] | 0.01 to 10 nM
NC(=O)C(=O)NCCCCNC(=O)c1ccc(Nc2nc(NC3(c4ccc(Cl)cc4)CC3)nc(OCC(F)(F)F)n2)cc1 [Compound 3391] | 0.01 to 10 nM
COC(=O)[C@H](CNC(=O)C(=O)Nc1ccc(Cl)cc1)NC(=O)c1ccc(Nc2nc(NC3(c4ccc(Cl)cc4)CC3)nc(OCC(F)(F)F)n2)cc1 [Compound 3081] | 0.01 to 10 nM
O=C(NCCCCNC(=O)c1ccc(Nc2nc(NC3(c4ccc(Cl)cc4)CC3)nc(OCC(F)(F)F)n2)cc1)C(=O)NCc1ccc(F)cc1 [Compound 3392] | 0.01 to 10 nM
COc1cc(NC(=O)C(=O)NCC(C)(C)CNC(=O)c2ccc(Nc3nc(NC4(c5ccc(Cl)cc5)CC4)nc(OCC(F)(F)F)n3)cc2)ccn1 [Compound 3251] | 0.01 to 10 nM
COC(=O)[C@H](CNC(=O)C(=O)Nc1ccc(C(C)(C)C)cc1)NC(=O)c1ccc(Nc2nc(NC3(c4ccc(Cl)cc4)CC3)nc(OCC(F)(F)F)n2)cc1 [Compound 3211] | 0.01 to 10 nM
CC(C)(CNC(=O)C(=O)Nc1ccc(F)c(Cl)c1)CNC(=O)c1ccc(Nc2nc(NC3(c4ccc(Cl)cc4)CC3)nc(OCC(F)(F)F)n2)cc1 [Compound 3059] | 0.01 to 10 nM
COC(=O)[C@@H](CCNC(=O)C(=O)Nc1ccc(OCCC2C(=O)c3ccccc3C2=O)nc1)NC(=O)c1ccc(Nc2nc(NC3(c4ccc(Cl)cc4)CC3)nc(OCC(F)(F)F)n2)cc1 [Compound 3569] | 0.01 to 10 nM
COC(=O)/C(CCNC(=O)C(=O)Nc1cccc(S(=O)(=O)C2CCCCC2)c1)=N\C(=O)c1ccc(Nc2nc(NC3(c4ccc(Cl)cc4)CC3)nc(OCC(F)(F)F)n2)cc1 [Compound 3595] | 0.01 to 10 nM
CC(CNC(=O)C(=O)Nc1cccc(F)c1)CNC(=O)c1ccc(Nc2nc(NC3(c4ccc(Cl)cc4)CC3)nc(OCC(F)(F)F)n2)cc1 (stereo not drawn) [Compound 3348] | 0.01 to 10 nM
COC(=O)[C@H](CCNC(=O)C(=O)Nc1ccc(-c2cnco2)cc1)NC(=O)c1ccc(Nc2nc(NC3(c4ccc(Cl)cc4)CC3)nc(OCC(F)(F)F)n2)cc1 [Compound 3122] | 0.01 to 10 nM
O=C(NCC[C@H](NC(=O)c1ccc(Nc2nc(NC3(c4ccc(Cl)cc4)CC3)nc(OCC(F)(F)F)n2)cc1)C(=O)O)C(=O)Nc1ccc(C2=CCC(N3CCOCC3)=N2)cc1 [Compound 3539] | 10 to 1000 nM
CN(CCCN(C)C(=O)c1ccc(Nc2nc(NC3(c4ccc(Cl)cc4)CC3)nc(OCC(F)(F)F)n2)cc1)C(=O)C(=O)Nc1nccs1 [Compound 3430] | 0.01 to 10 nM
